For assay [1], the system named is Hela cells. In words: Activity in Hela cells (interferon-γ induced, kynurenine readout with Ehrlich's reagent). The settings on record: Homo sapiens, interferon-γ 50 ng/mL, tryptophan 16 mg/L, 48 hours, absorption at 480 nm. In kind it is cell-based. The method, then: Example 1: Study on the Activity of the Compound of the Present Invention in Hela Cells
Hela cells were seeded in 96-well culture plates and incubated at 37° C., 100% relative humidity, 5% CO2 incubator for 24 hours. The compound was dissolved in DMSO and diluted to an appropriate concentration, and then the compound was diluted 100-fold with DMEM medium containing interferon-γ and 10% fetal bovine serum to the final concentration of effect. Aspirate the old medium from the 96-well plate and add 200 μL of each medium containing compound and interferon-γ from the previous step. The content of tryptophan in the medium is 16 mg/L, and the concentration of interferon-γ is 50 ng/mL. The cells were placed in a 37° C., 100% relative humidity, and 5% CO2 incubator for 48 hours, then 140 μL of the cell culture supernatant was mixed with 15 μL of trichloroacetic acid, and placed at 52° C. for 30 min, then centrifuged at room temperature to take the centrifugal supernatant. Mix with an equal volume of Ehrlich's reagent, measure the light absorption at 480 nm, and calculate the IC50 values.

For assay [2], the target named is T1, human IDO1 protein (Homo sapiens, UniProt P14902).
T1 construct: expressed in transfected cells; host or cells: HEK293
Nature of the assay: Activity in HEK293 cells highly expressing human IDO1 protein. To be noted: HEK293-IDO cells, tryptophan 16 mg/L, 24 hours, absorption at 480 nm; read-out: IC50 (HEK293 cell). In kind it is cell-based. The method, then: Example 2: Study on the Activity of the Present Invention in HEK293 Cells Highly Expressing Human IDO1 Protein
HEK293-IDO cells with high expression of human IDO1 protein were prepared by electrotransformation, and the cells were seeded in 96-well culture plates, and cultured at 37° C., 100% relative humidity, and 5% CO2 incubator for 24 hours. Dissolve in DMSO and dilute to the appropriate concentration, then use DMEM medium containing 10% fetal bovine serum to dilute the candidate 100-fold to the final concentration. Aspirate the old medium from the 96-well plate and add 200 μL of the medium contained in the previous step to each well. The content of tryptophan in the medium is 16 mg/L. The cells were placed in a 37° C., 100% relative humidity, and 5% CO2 incubator for 24 hours. 140 μL of the cell culture supernatant was mixed with 15 μL of trichloroacetic acid and placed at 52° C. for 30 min. Mix with an equal volume of Ehrlich's reagent, measure the light absorption at 480 nm, and calculate the IC50 values.

T1 sequence (P14902 whole entry): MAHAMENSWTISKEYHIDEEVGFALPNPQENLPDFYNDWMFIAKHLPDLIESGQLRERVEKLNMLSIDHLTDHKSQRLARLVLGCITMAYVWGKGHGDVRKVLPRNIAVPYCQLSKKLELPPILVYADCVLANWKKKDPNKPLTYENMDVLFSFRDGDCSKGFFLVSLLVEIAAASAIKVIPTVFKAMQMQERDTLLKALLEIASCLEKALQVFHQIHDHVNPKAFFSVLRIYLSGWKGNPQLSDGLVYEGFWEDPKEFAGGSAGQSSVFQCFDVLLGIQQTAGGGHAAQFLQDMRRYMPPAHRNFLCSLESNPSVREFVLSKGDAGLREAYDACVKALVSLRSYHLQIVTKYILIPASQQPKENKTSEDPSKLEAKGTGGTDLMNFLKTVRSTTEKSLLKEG

The term IC50 denotes the concentration that inhibits the measured activity by half. As for `O=C(Nc1ccc(Cl)cc1)[C@H]1CC12CCC(c1ccnc3ccc(F)cc13)CC2` (single isomer, unassigned) [Compound 10a], the IC50 in assay [1] and in assay [2] was 0.1 to 10 nM throughout. Regarding `O=C(Nc1ccc(Cl)cc1)[C@@H]1CC12CCC(c1ccnc3ccc(F)cc13)CC2` (single isomer, unassigned) [Compound 10b], the IC50 in assay [1] and in assay [2] was over 100 nM in each case.

Take `Cc1cc2nccc([C@H]3CC[C@@]4(CC3)C[C@@H]4C(=O)Nc3ccc(Cl)cc3)c2cc1F` (single isomer, unassigned) [Compound 92]: the IC50 in assay [1] and in assay [2] was 0.1 to 10 nM throughout. Regarding `Cc1cc2nccc([C@H]3CC[C@@]4(CC3)C[C@H]4C(=O)Nc3ccc(Cl)cc3)c2cc1F` (single isomer, unassigned) [Compound 93], the IC50 in assay [1] and in assay [2] was over 100 nM in each case. `COCCOc1ccc(NC(=O)[C@H]2C[C@]23CC[C@H](c2ccnc4cc(C)c(F)cc42)CC3)cc1` (single isomer, unassigned) [Compound 98]: the IC50 in assay [1] and in assay [2] was 0.1 to 10 nM in each case. As to `COCCOc1ccc(NC(=O)[C@@H]2C[C@]23CC[C@H](c2ccnc4cc(C)c(F)cc42)CC3)cc1` (single isomer, unassigned) [Compound 99], the 50% inhibitory concentration (IC50) in assay [1] and in assay [2] was over 100 nM each time. Turning to `COc1cc2nccc([C@H]3CC[C@@]4(CC3)C[C@@H]4C(=O)Nc3ccc(Cl)cc3)c2cc1F` (single isomer, unassigned) [Compound 108], the IC50 in assay [1] and in assay [2] was 0.1 to 10 nM each time. As for `COc1cc2nccc([C@H]3CC[C@@]4(CC3)C[C@H]4C(=O)Nc3ccc(Cl)cc3)c2cc1F` (single isomer, unassigned) [Compound 109], the IC50 in assay [1] and in assay [2] was over 100 nM in each case. With `O=C(Nc1ccc(Cl)cc1)C1CC12CCC(c1ccnc3ccc(F)cc13)CC2` (stereo not shown) [Compound 1, N-(4-chlorophenyl)-6-(6-fluoroquinolin-4-yl)spiro[2.5]octane-1-carboxamide], the IC50 in assay [1] lay within 0.1 to 10 nM; in assay [2], 10 to 100 nM. For the compound `O=C(Nc1ccc(F)cc1)C1CC12CCC(c1ccnc3ccc(F)cc13)CC2` (stereo not shown) [Compound 2, N-(4-fluorophenyl)-6-(6-fluoroquinolin-4-yl)spiro[2.5]octane-1-carboxamide], the IC50 in assay [1] and in assay [2] was 10 to 100 nM throughout. Turning to `O=C(NCc1ccc(Cl)cc1)C1CC12CCC(c1ccnc3ccc(F)cc13)CC2` (stereo not shown) [Compound 3, N-(4-chlorobenzyl)-6-(6-fluoroquinolin-4-yl)spiro[2.5]octane-1-carboxamide], the IC50 in assay [1] and in assay [2] was over 100 nM in each case. Take `O=C(NCCc1ccc(Cl)cc1)C1CC12CCC(c1ccnc3ccc(F)cc13)CC2` (stereo not shown) [Compound 4, N-(4-chlorophenethyl)-6-(6-fluoroquinolin-4-yl)spiro[2.5]octane-1-carboxamide]: the IC50 in assay [1] and in assay [2] was over 100 nM each time. For the compound `O=C(Nc1ccc(C(F)(F)F)cc1)C1CC12CCC(c1ccnc3ccc(F)cc13)CC2` (stereo not shown) [Compound 5, 6-(6-fluoroquinolin-4-yl)-N-(4-(trifluoromethyl)phenyl)spiro[2.5]octane-1-carboxamide], the IC50 in assay [1] is over 100 nM; in assay [2] it was 10 to 100 nM. The matching figures for `N#Cc1ccc(NC(=O)C2CC23CCC(c2ccnc4ccc(F)cc24)CC3)cc1` (stereo not shown) [Compound 6, N-(4-cyanophenyl)-6-(6-fluoroquinolin-4-yl)spiro[2.5]octane-1-carboxamide]: 10 to 100 nM and 10 to 100 nM.

As to `O=C(Nc1ccc(Cl)nc1)C1CC12CCC(c1ccnc3ccc(F)cc13)CC2` (stereo not shown) [Compound 7, N-(6-chloropyridin-3-yl)-6-(6-fluoroquinolin-4-yl)spiro[2.5]octane-1-carboxamide], the IC50 in assay [1] and in assay [2] was 10 to 100 nM throughout. On to `O=C(Nc1ccc(Cl)cn1)C1CC12CCC(c1ccnc3ccc(F)cc13)CC2` (stereo not shown) [Compound 8, N-(5-chloropyridin-2-yl)-6-(6-fluoroquinolin-4-yl)spiro[2.5]octane-1-carboxamide], for which the IC50 in assay [1] and in assay [2] was 10 to 100 nM in each case.

In assay [1], `O=S(=O)(Nc1ccc(Cl)cc1)C1CC12CCC(c1ccnc3ccc(F)cc13)CC2` (stereo not shown) [Compound 14, N-(4-chlorophenyl)-6-(6-fluoroquinolin-4-yl)spiro[2.5]octane-1-sulfonamide] had an IC50 of 0.1 to 10 nM. Turning to `O=S(=O)(Nc1ccc(F)cc1)C1CC12CCC(c1ccnc3ccc(F)cc13)CC2` (stereo not shown) [Compound 15], the IC50 in assay [1] lay in the range of 0.1 to 10 nM. As for `O=S(=O)(Nc1ccc(C(F)(F)F)cc1)C1CC12CCC(c1ccnc3ccc(F)cc13)CC2` (stereo not shown) [Compound 16], the IC50 in assay [1] was in the range of 0.1 to 10 nM. Same read-out and setting: in the case of `COc1ccc(NS(=O)(=O)C2CC23CCC(c2ccnc4ccc(F)cc24)CC3)cc1` (stereo not shown) [Compound 17] it was 0.1 to 10 nM. Same read-out and setting: the result for `Cc1ccc(NS(=O)(=O)C2CC23CCC(c2ccnc4ccc(F)cc24)CC3)cc1` (stereo not shown) [Compound 18] reads 0.1 to 10 nM; that for `N#Cc1ccc(NS(=O)(=O)C2CC23CCC(c2ccnc4ccc(F)cc24)CC3)cc1` (stereo not shown) [Compound 19], 0.1 to 10 nM.

Regarding `Cc1ccc(NC(=O)N2CC23CCC(c2ccnc4ccc(F)cc24)CC3)cc1` (stereo not shown) [Compound 24], the IC50 in assay [1] was over 100 nM. Consider `O=C(Nc1ccc(Cl)cc1)C1COC12CCC(c1ccnc3ccc(F)cc13)CC2` (stereo not shown) [Compound 50, N-(4-chlorophenyl)-7-(6-fluoroquinolin-4-yl)-1-oxaspiro[3.5]nonane-3-carboxamide], for which the IC50 in assay [1] lay within 10 to 100 nM. For the compound `O=C(Nc1ccc(F)cc1)C1COC12CCC(c1ccnc3ccc(F)cc13)CC2` (stereo not shown) [Compound 51], the IC50 in assay [1] fell in the range of 10 to 100 nM. In turn, `O=C(Nc1ccc(C(F)(F)F)cc1)C1COC12CCC(c1ccnc3ccc(F)cc13)CC2` (stereo not shown) [Compound 52] displayed a 50% inhibitory concentration (IC50) in assay [1] of 10 to 100 nM.

For the compound `COc1ccc(NC(=O)C2COC23CCC(c2ccnc4ccc(F)cc24)CC3)cc1` (stereo not shown) [Compound 53], in assay [1], the IC50 was 10 to 100 nM. With `Cc1ccc(NC(=O)C2COC23CCC(c2ccnc4ccc(F)cc24)CC3)cc1` (stereo not shown) [Compound 54], in assay [1], the IC50 lay within 10 to 100 nM. The compound `N#Cc1ccc(NC(=O)C2COC23CCC(c2ccnc4ccc(F)cc24)CC3)cc1` (stereo not shown) [Compound 55] returned an IC50 in assay [1] of 10 to 100 nM. The same measure, in the same setting: in the case of `Cc1cc2nccc(C3CCC4(CC3)CC4C(=O)Nc3ccc(F)cc3)c2cc1F` (stereo not shown) [Compound 80, 6-(6-fluoro-7-methylquinolin-4-yl)-N-(4-fluorophenyl)spiro[2.5]octane-1-carboxamide] it was 0.1 to 10 nM; in that of `Cc1cc2nccc(C3CCC4(CC3)CC4C(=O)Nc3ccc(C#N)cc3)c2cc1F` (stereo not shown) [Compound 81], 0.1 to 10 nM. The same measure, in the same setting: the result for `Cc1cc2nccc(C3CCC4(CC3)CC4C(=O)Nc3ccc(C(F)(F)F)cc3)c2cc1F` (stereo not shown) [Compound 82] reads 0.1 to 10 nM; that for `Cc1ccc(NC(=O)C2CC23CCC(c2ccnc4cc(C)c(F)cc24)CC3)cc1` (stereo not shown) [Compound 83], 0.1 to 10 nM.

As to `COc1ccc(NC(=O)C2CC23CCC(c2ccnc4cc(C)c(F)cc24)CC3)cc1` (stereo not shown) [Compound 84], the IC50 in assay [1] lay within 0.1 to 10 nM.

As for `Cc1cc2nccc(C3CCC4(CC3)CC4C(=O)Nc3ccc(Br)cc3)c2cc1F` (stereo not shown) [Compound 85], in assay [1], the IC50 was in the range of 0.1 to 10 nM. Same read-out and setting: the result for `Cc1cc2nccc(C3CCC4(CC3)CC4C(=O)Nc3ccc(Cl)c(F)c3)c2cc1F` (stereo not shown) [Compound 86] reads 0.1 to 10 nM. Still for that read-out and setting: the result for `CN1CC(C(=O)Nc2ccc(Cl)cc2)C2(CCC(c3ccnc4ccc(F)cc34)CC2)C1` (stereo not shown) [Compound 87, N-(4-chlorophenyl)-8-(6-fluoroquinolin-4-yl)-2-methyl-2-azaspiro[4.5]decane-4-carboxamide] reads over 100 nM. `CN1CC(C(=O)Nc2ccc(F)cc2)C2(CCC(c3ccnc4ccc(F)cc34)CC2)C1` (stereo not shown) [Compound 88] gave an IC50 in assay [1] of over 100 nM.

The compound `CN1CC(C(=O)Nc2ccc(C(F)(F)F)cc2)C2(CCC(c3ccnc4ccc(F)cc34)CC2)C1` (stereo not shown) [Compound 89] registered an IC50 in assay [1] of over 100 nM. On the same count and under the same terms, the result for `CN1CC(C(=O)Nc2ccc(Br)cc2)C2(CCC(c3ccnc4ccc(F)cc34)CC2)C1` (stereo not shown) [Compound 90] reads over 100 nM. On the same count and under the same terms, the result for `CN1CC(C(=O)Nc2ccc(C#N)cc2)C2(CCC(c3ccnc4ccc(F)cc34)CC2)C1` (stereo not shown) [Compound 91] reads over 100 nM; that for `COCc1cc2nccc(C3CCC4(CC3)CC4C(=O)Nc3ccc(Cl)cc3)c2cc1F` (stereo not shown) [Compound 115, N-(4-chlorophenyl)-6-(6-fluoro-7-(methoxymethyl)quinolin-4-yl)spiro[2.5]octane-1-carb oxamide], 0.1 to 10 nM.

Values taken from patent US11111230B2 (ADLAI NORTYE BIOPHARMA CO., LTD., priority 2017, dated 2021).
